Legend:
H3R [1] = target: T1, H3R (Homo sapiens, UniProt Q9Y5N1); experiment: Intrinsic activity at H3R, range over both methods (LANCE Ultra cAMP and Aequoscreen); assay type: cell-based; conditions: read-out: IC50 at H3R, range depending on the assay method
T1 construct: the Aequoscreen line co-expresses apoaequorin
Procedure: The Aequoscreen technology uses recombinant cell lines with stable co-expression of apoaequorin and a GPCR as a system to detect activation of the receptor, following the addition of an agonist, via the measurement of light emission. For the measurement, cells (frozen, ready to use) were thawed and resuspended in 10 mL of assay buffer containing 5 μM of coelenterazine h. The cell suspension was then placed in a 10 mL Falcon tube, fixed on a rotating wheel, and incubated overnight at RT° in the dark. Cells were diluted with assay buffer at 5000 cells/20 µL. Agonistic ligands 2 × (50 μL/well), diluted in assay buffer, were prepared in 1/2 area white polystyrene plates, and 50 μL of cell suspension was dispersed on the ligands using the injector. The light emission was recorded for 20 s. Cells were incubated with antagonist for 15 min at RT°. Then, 50 µL of agonist (final concentration equal to 3 × EC80) was injected into the mixture of cells and antagonist and light emission was recorded for 20 s. The LANCE Ultra cAMP assay as a homogeneous time-resolved fluorescence resonance energy transfer (TR-FRET) immunoassay is designed to measure cAMP produced upon the modulation of adenylyl cyclase activity by GPCRs. […] For the measurement, cells (frozen, ready to use) were thawed and resuspended in 4 mL of HBSS 1×. […]

H3R [2] = target: T1, H3R; experiment: Affinity at the H3R (literature values); assay type: binding; conditions: H3R Ki relative to sigma-2 Ki

T1 sequence (Q9Y5N1 whole entry): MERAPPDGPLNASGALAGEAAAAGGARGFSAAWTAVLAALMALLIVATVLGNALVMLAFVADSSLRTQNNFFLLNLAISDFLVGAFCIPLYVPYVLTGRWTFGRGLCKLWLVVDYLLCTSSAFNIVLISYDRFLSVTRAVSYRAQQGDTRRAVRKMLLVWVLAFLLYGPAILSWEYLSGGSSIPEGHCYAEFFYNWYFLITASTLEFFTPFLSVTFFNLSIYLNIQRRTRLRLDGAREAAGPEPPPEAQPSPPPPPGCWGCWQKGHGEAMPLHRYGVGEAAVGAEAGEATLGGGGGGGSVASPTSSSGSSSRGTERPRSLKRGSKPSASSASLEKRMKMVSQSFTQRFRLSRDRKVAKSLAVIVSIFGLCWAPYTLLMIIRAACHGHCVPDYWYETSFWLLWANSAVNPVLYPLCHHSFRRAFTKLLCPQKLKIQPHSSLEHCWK

| Compound | IC50 (H3R [1]) [nM] | affinity ratio H3/sigma-2 receptors (H3R [2]) |
| --- | --- | --- |
| CCC(=O)c1ccc(OCCCCCCN2CCN(c3ccncc3)CC2)cc1 [KSK-60] | 0.8 to 1.5 |  |
| CCC(=O)c1ccc(OCCCCCCCCN2CCN(c3ccncc3)CC2)cc1 [KSK-74] | 23 to 32 | 0.59 |

From PMC9266460, “KSK-74: Dual Histamine H3 and Sigma-2 Receptor Ligand with Anti-Obesity Potential” (International Journal of Molecular Sciences, 2022)
